Results: article PMC3865603 (Cancer chemotherapy and pharmacology, 2011)

Legend:
Type in all cases: in vivo, human
[1] = test system: patients with advanced solid tumors; assay: Phase I dose escalation: safety, DLT, MTD; details: for Dyspnea, grade 3: listed as remotely related to study drug
tubulin in PBMCs = assay: Microtubule bundle formation; details: for mean percentage of MBF: RP2D
[2] = test system: advanced or metastatic solid tumors; assay: Anti-tumor activity
QTcB interval = assay: 12-lead ECG, QTcB interval; details: baseline or pre- vs post-infusion ECGs, cycles 1 and 2
[3] = 0.8 mg/m^2 (n = 1), treatment-related
[4] = 1.5 mg/m^2 (n = 4), treatment-related
[5] = 2.5 mg/m^2 (n = 4), treatment-related
[6] = 3.7 mg/m^2 (n = 3), treatment-related
[7] = 5 mg/m^2 (n = 4), treatment-related
[8] = 6.5 mg/m^2 (n = 6), treatment-related
[9] = 8.5 mg/m^2 (n = 3), treatment-related
[10] = 11.3 mg/m^2 (n = 4), treatment-related
[11] = 15 mg/m^2 (n = 4), treatment-related
[12] = 20 mg/m^2 (n = 5), treatment-related
[13] = 27 mg/m^2 (n = 4), treatment-related
[14] = 36 mg/m^2 (n = 16), treatment-related
[15] = 42 mg/m^2 (n = 6), treatment-related
[16] = 48 mg/m^2 (n = 2), treatment-related

C/C1=C/C[C@@H](/C(C)=C/c2csc(C)n2)OC(=O)C[C@H](O)C(C)(C)C(=O)[C@H](C)[C@@H](O)[C@@H](C)/C=C/C1 [KOS-1584, (E)-9,10-didehydroepothilone D]
Dyspnea, grade 3 ([1]; 0.8 mg/m^2 (n = 1)): 1 no. of patients | Anemia, grade 1/2 [1, 3]: 1 no. of patients | Anorexia, grade 1/2 [1, 3]: 1 no. of patients | Asthenia/fatigue, grade 3 [1, 3]: 1 no. of patients | Constipation, grade 1/2 [1, 3]: 1 no. of patients | Diarrhea, grade 1/2 [1, 3]: 1 no. of patients | Nausea/vomiting, grade 1/2 [1, 3]: 1 no. of patients | Anorexia, grade 1/2 [1, 4]: 2 no. of patients | Arthralgia/myalgia, grade 1/2 [1, 4]: 1 no. of patients | Back pain, grade 1/2 [1, 4]: 2 no. of patients | Diarrhea, grade 1/2 [1, 4]: 2 no. of patients | Dyspnea, grade 1/2 [1, 4]: 1 no. of patients | Lymphopenia, grade 1/2 [1, 4]: 1 no. of patients | Nausea/vomiting, grade 1/2 [1, 4]: 1 no. of patients | Peripheral neuropathy, grade 1/2 [1, 4]: 2 no. of patients | Pleural effusion, grade 1/2 [1, 4]: 1 no. of patients | Abdominal pain, grade 1/2 [1, 5]: 2 no. of patients | Anorexia, grade 1/2 [1, 5]: 2 no. of patients | Asthenia/fatigue, grade 1/2 [1, 5]: 4 no. of patients | Constipation, grade 1/2 [1, 5]: 2 no. of patients | Diarrhea, grade 1/2 [1, 5]: 2 no. of patients | Dry skin/rash, grade 1/2 [1, 5]: 1 no. of patients | Nausea/vomiting, grade 1/2 [1, 5]: 2 no. of patients | Peripheral neuropathy, grade 1/2 [1, 5]: 1 no. of patients | Abdominal pain, grade 1/2 [1, 6]: 1 no. of patients | Anemia, grade 1/2 [1, 6]: 1 no. of patients | Arthralgia/myalgia, grade 1/2 [1, 6]: 1 no. of patients | Asthenia/fatigue, grade 1/2 [1, 6]: 1 no. of patients | Diarrhea, grade 1/2 [1, 6]: 2 no. of patients | Dizziness, grade 1/2 [1, 6]: 1 no. of patients | Nausea/vomiting, grade 1/2 [1, 6]: 1 no. of patients | Peripheral neuropathy, grade 1/2 [1, 6]: 1 no. of patients | Anorexia, grade 1/2 [1, 7]: 1 no. of patients | Dizziness, grade 1/2 [1, 7]: 1 no. of patients | Edema, grade 1/2 [1, 7]: 1 no. of patients | Nausea/vomiting, grade 1/2 [1, 7]: 1 no. of patients | Dyspnea, grade 3 ([1]; 6.5 mg/m^2 (n = 6)): 1 no. of patients | Anemia, grade 1/2 [1, 8]: 1 no. of patients | Asthenia/fatigue, grade 1/2 [1, 8]: 2 no. of patients | Diarrhea, grade 1/2 [1, 8]: 1 no. of patients | Dizziness, grade 1/2 [1, 8]: 2 no. of patients | Nausea/vomiting, grade 1/2 [1, 8]: 1 no. of patients | Pleural effusion, grade 1/2 [1, 8]: 1 no. of patients | Asthenia/fatigue, grade 1/2 [1, 9]: 1 no. of patients | Edema, grade 1/2 [1, 9]: 1 no. of patients | Peripheral neuropathy, grade 1/2 [1, 9]: 1 no. of patients | Anorexia, grade 1/2 [1, 10]: 1 no. of patients | Asthenia/fatigue, grade 1/2 [1, 10]: 1 no. of patients | Asthenia/fatigue, grade 3 [1, 10]: 1 no. of patients | Constipation, grade 1/2 [1, 10]: 1 no. of patients | Headache, grade 1/2 [1, 10]: 1 no. of patients | Nausea/vomiting, grade 1/2 [1, 10]: 1 no. of patients | Abdominal pain, grade 3 [1, 11]: 1 no. of patients | Anemia, grade 1/2 [1, 11]: 1 no. of patients | Asthenia/fatigue, grade 3 [1, 11]: 1 no. of patients | Diarrhea, grade 1/2 [1, 11]: 1 no. of patients | Edema, grade 1/2 [1, 11]: 1 no. of patients | Nausea/vomiting, grade 1/2 [1, 11]: 2 no. of patients | Peripheral neuropathy, grade 1/2 [1, 11]: 1 no. of patients | Alopecia, grade 1/2 [1, 12]: 1 no. of patients | Anemia, grade 1/2 [1, 12]: 1 no. of patients | Anorexia, grade 1/2 [1, 12]: 1 no. of patients | Asthenia/fatigue, grade 1/2 [1, 12]: 1 no. of patients | Constipation, grade 1/2 [1, 12]: 1 no. of patients | Diarrhea, grade 1/2 [1, 12]: 1 no. of patients | Lymphopenia, grade 1/2 [1, 12]: 1 no. of patients | Nausea/vomiting, grade 1/2 [1, 12]: 2 no. of patients | Peripheral neuropathy, grade 1/2 [1, 12]: 2 no. of patients | Dyspnea, grade 3 ([1]; 27 mg/m^2 (n = 4)): 1 no. of patients | Alopecia, grade 1/2 [1, 13]: 1 no. of patients | Anemia, grade 1/2 [1, 13]: 2 no. of patients | Anorexia, grade 1/2 [1, 13]: 1 no. of patients | Asthenia/fatigue, grade 1/2 [1, 13]: 4 no. of patients | Back pain, grade 1/2 [1, 13]: 1 no. of patients | Chest pain, grade 1/2 [1, 13]: 1 no. of patients | Constipation, grade 1/2 [1, 13]: 1 no. of patients | Diarrhea, grade 1/2 [1, 13]: 1 no. of patients | Dizziness, grade 1/2 [1, 13]: 1 no. of patients | Dry skin/rash, grade 1/2 [1, 13]: 1 no. of patients | Headache, grade 1/2 [1, 13]: 3 no. of patients | Nausea/vomiting, grade 1/2 [1, 13]: 1 no. of patients | Peripheral neuropathy, grade 1/2 [1, 13]: 4 no. of patients | incidence of diarrhea at RP2D, first figure ([1]; 36 mg/m^2): 31% | incidence of diarrhea at RP2D, second figure ([1]; 36 mg/m^2): 6% | Alopecia, grade 1/2 [1, 14]: 4 no. of patients | Anemia, grade 1/2 [1, 14]: 2 no. of patients | Anorexia, grade 1/2 [1, 14]: 3 no. of patients | Arthralgia/myalgia, grade 3 [1, 14]: 1 no. of patients | Asthenia/fatigue, grade 3 [1, 14]: 1 no. of patients | Back pain, grade 1/2 [1, 14]: 1 no. of patients | Back pain, grade 3 [1, 14]: 1 no. of patients | Chest pain, grade 1/2 [1, 14]: 2 no. of patients | Chest pain, grade 3 [1, 14]: 1 no. of patients | Constipation, grade 1/2 [1, 14]: 1 no. of patients | Diarrhea, grade 1/2 [1, 14]: 4 no. of patients | Diarrhea, grade 3 [1, 14]: 1 no. of patients | Dry skin/rash, grade 1/2 [1, 14]: 1 no. of patients | Edema, grade 1/2 [1, 14]: 2 no. of patients | Headache, grade 1/2 [1, 14]: 1 no. of patients | Peripheral neuropathy, grade 1/2 [1, 14]: 11 no. of patients | Thrombocytopenia, grade 1/2 [1, 14]: 1 no. of patients | Abdominal pain, grade 3 [1, 15]: 2 no. of patients | Alopecia, grade 1/2 [1, 15]: 2 no. of patients | Anemia, grade 3 [1, 15]: 1 no. of patients | Anorexia, grade 1/2 [1, 15]: 2 no. of patients | Asthenia/fatigue, grade 1/2 [1, 15]: 3 no. of patients | Asthenia/fatigue, grade 3 [1, 15]: 1 no. of patients | Constipation, grade 3 [1, 15]: 1 no. of patients | Diarrhea, grade 1/2 [1, 15]: 3 no. of patients | Diarrhea, grade 3 [1, 15]: 2 no. of patients | Dizziness, grade 1/2 [1, 15]: 2 no. of patients | Lymphopenia, grade 3 [1, 15]: 1 no. of patients | Nausea/vomiting, grade 1/2 [1, 15]: 3 no. of patients | Neutropenia, grade 3 [1, 15]: 1 no. of patients | Peripheral neuropathy, grade 1/2 [1, 15]: 4 no. of patients | Peripheral neuropathy, grade 3 [1, 15]: 2 no. of patients | Thrombocytopenia, grade 1/2 [1, 15]: 1 no. of patients | Anorexia, grade 1/2 [1, 16]: 1 no. of patients | Arthralgia/myalgia, grade 3 [1, 16]: 1 no. of patients | Asthenia/fatigue, grade 1/2 [1, 16]: 1 no. of patients | Back pain, grade 3 [1, 16]: 1 no. of patients | Nausea/vomiting, grade 3 [1, 16]: 1 no. of patients | Peripheral neuropathy, grade 3 [1, 16]: 1 no. of patients | frequency of all-grade peripheral neuropathy ([1]; RP2D 36 mg/m^2): 69% | frequency of grade ≥3 peripheral neuropathy ([1]; RP2D 36 mg/m^2): 0% | patients who discontinued therapy due to adverse effects ([1]; all cohorts): Five | patients with positive FOBT or hematochezia ([1]; all cohorts): Five | myelosuppression ([1]; heavily pretreated patients): very low incidence of myelosuppression | recommended phase II dose (RP2D) ([1]; iv every 3 weeks): 36 mg/m^2 | maximum tolerated dose (MTD) ([1]; iv over 3 h every 3 weeks): 36 mg/m^2 | hypersensitivity reactions ([1]; no routine premedication): not associated with any hypersensitivity reactions | mean percentage of MBF (tubulin in PBMCs; 1 h after infusion): 50% | mean percentage of MBF (tubulin in PBMCs; 24 h after infusion): 26% | E0 of MBF (tubulin in PBMCs; sigmoidal maximum effect model): 3.69% | EC50 of plasma concentration for MBF (tubulin in PBMCs; sigmoidal maximum effect model): 24.1 ng/mL | Emax of MBF (tubulin in PBMCs; sigmoidal maximum effect model): 52.7% | patients with durable SD of ≥3 months ([2]; 66 patients): 13 patients | patients with objective partial response (PR) ([2]; 66 patients, 0.8-48 mg/m^2): Two | disease control rate (CR + PR + SD) ([2]; all patients): 39% | effect on QTcB interval (QTcB interval): did not show any effects
